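96-well plates; 48 h exposure; 5 concentrations. Endpoints by linear interpolation between flanking doses. Not reached: highest tested concentration assigned. GI50 is the concentration that inhibits growth by half.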 Calls of active or inactive are those of the source. Rule as the data show it: active = GI50 up to about 1.1 µM and inactive = higher.

Holding throughout (assay): NCI tumour cell line growth inhibition, 48 h
Test [1] has as its system K562.
Test [2] relates to UACC-62.
Test [3] has as its system SK-MEL-5.
Test [4] deals with ACHN.
Test [5] deals with OVCAR-3.
The subject of test [6] is SNB-19.
In test [7] the test system is RXF 393.
Test [8] has as its system T47D.
Test [9] relates to Hs-578T.
For test [10], the system named is SN12C.
Test [11] relates to OVCAR-5.
Test [12] relates to KM12.
Test [13] deals with M14.
Test [14] concerns PC-3.
In test [15] the test system is MCF7.
In test [16] the test system is SNB-75.
The subject of test [17] is HCT-15.
In test [18] the test system is HOP-92.
Test [19] concerns SK-MEL-2.
The test system of test [20] is IGROV-1.

Regarding `CN(C)CCn1c(=O)c2ccc3c4c(nn3CCN(C)C)c3ccccc3n(c1=O)c24`, the GI50 was 0.146 µM (active) in test [1]; 0.564 µM (active) in test [2]; 0.728 µM (active) in test [3]; < 0.129 µM (active) in test [4]; 0.431 µM (active) in [5]; 0.313 µM (active) in test [6]. For the same compound, the GI50 in test [7] was 0.275 µM (active); in [8], 0.524 µM (active); in test [9] it was 0.526 µM (active); in test [10], 0.148 µM (active); in test [11] it was 0.485 µM (active); in [12], 0.205 µM (active). Further, the GI50 is 0.411 µM (active) in test [13]; 0.351 µM (active) in [14]; 0.188 µM (active) in test [15]; < 0.0146 µM (active) in test [16]; less than 0.125 µM in test [17]; 1.87 µM (inactive) in test [18]. In addition, in [19], the GI50 was 0.423 µM (active).
Turning to `Cc1cc(C)c2c(O)c(S(=O)(=O)c3ccc(Cl)cc3)c(=O)oc2c1`, the GI50 in test [1] was 55.6 µM (inactive); in test [2], 58.6 µM (inactive); in test [3], 60 µM (inactive); in test [5], 40 µM (inactive); in [6], 52.1 µM (inactive); in [7], > 100 µM (inactive). Further, the GI50 in test [8] is 99.8 µM (inactive); in test [9], 39.4 µM (inactive); in [10] it was 65.3 µM (inactive); in test [11] it was 93.1 µM (inactive); in test [12] it was 36.1 µM (inactive); in test [13] it was 34.3 µM (inactive). For the same compound, the GI50 in test [14] was 49 µM (inactive); in test [15], 50.6 µM (inactive); in test [20], 31.7 µM (inactive); in [16] it was 45 µM (inactive); in [17], 49.7 µM; in [18], 65.6 µM (inactive). Moreover, the GI50 in test [19] was 32.7 µM (inactive).
For `CC(C)(C)OC(=O)N1CCc2c(n(C/C=C/c3ccccc3)[nH]c2=O)C1`, the GI50 in [1] was 46.6 µM (inactive); in test [2] it was > 100 µM (inactive); in test [3] it was 34.4 µM (inactive); in [4], > 100 µM (inactive); in test [5], > 100 µM (inactive); in test [6], > 100 µM (inactive). Also, the GI50 in test [7] was > 100 µM (inactive); in [8], 46.7 µM (inactive); in [9] it was > 100 µM (inactive); in [10] it was > 100 µM (inactive); in [12], > 100 µM (inactive); in test [13], > 100 µM (inactive). Besides, the GI50 in [14] was > 100 µM (inactive); in [15], 65.3 µM (inactive); in test [20], > 100 µM (inactive); in test [16], > 100 µM (inactive); in test [17], more than 100 µM; in test [18], > 53.5 µM (inactive). The GI50 in [19] is > 100 µM (inactive).
In the case of `Cc1cn([C@@H]2C[C@@H]2CO)c(=O)[nH]c1=O`, the GI50 in test [1], in test [2], in test [3], in test [4], in test [6] and in [7] was > 100 µM (inactive) throughout. Besides, the GI50 in test [8], in test [9], in test [10], in [11], in test [12] and in test [13] was > 100 µM (inactive) throughout. The GI50 was > 100 µM (inactive) in test [14]; > 100 µM (inactive) in test [15]; > 100 µM (inactive) in [20]; > 100 µM (inactive) in [16]; more than 100 µM in [17]; > 100 µM (inactive) in [18]. For the same compound, in [19], the GI50 was > 100 µM (inactive).
For the compound `COc1ccccc1N1C(=O)CSC1c1cc(OC)c(OC)c(OC)c1` (configuration not stated), the GI50 in test [1] was 24.9 µM (inactive); in test [2], 20.5 µM (inactive); in [3], 25.5 µM (inactive); in test [4] it was > 100 µM (inactive); in test [5] it was > 46.3 µM (inactive); in [7], > 52.1 µM (inactive). The GI50 in test [8] was 12.4 µM (inactive); in [9] it was > 59.7 µM (inactive); in [10] it was > 100 µM (inactive); in [11], > 100 µM (inactive); in test [12], 21.3 µM (inactive); in test [13], > 88.5 µM (inactive). Also, the GI50 in test [14] was > 78.2 µM (inactive); in test [15] it was 16.3 µM (inactive); in [20] it was 33 µM (inactive); in test [16], > 100 µM (inactive); in test [17] it was 50.6 µM; in test [18], 50.9 µM (inactive). Besides, the GI50 in test [19] was 55.7 µM (inactive).
For `CCN(CC)CCNc1nc(N)c(C#N)c(C#N)c1C#N`, the GI50 in test [1], in [2], in [3], in [4], in [5] and in test [6] was > 10 µM (inactive) throughout. In addition, the GI50 in [7], in test [8], in [9], in test [10], in test [11] and in [12] was > 10 µM (inactive) each time. Further, the GI50 in test [13] was > 10 µM (inactive); in test [14], > 10 µM (inactive); in test [15] it was > 10 µM (inactive); in test [20], > 10 µM (inactive); in test [16] it was > 10 µM (inactive); in test [17], more than 10 µM. In addition, the GI50 in test [18] is > 10 µM (inactive).
For `Cc1ccc2c(c1)[nH]c(=S)n2C=C1C(=O)CC(C)(C)CC1=O`, the GI50 in test [2], in test [3], in [4], in test [5], in test [6] and in test [7] was > 100 µM (inactive) in each case. Further, the GI50 in test [8], in [9], in test [10], in [11], in test [12] and in [13] was > 100 µM (inactive) each time. The GI50 in test [14] was > 100 µM (inactive); in [15], > 100 µM (inactive); in test [20] it was 15.8 µM (inactive); in test [16] it was > 100 µM (inactive); in [17], more than 100 µM; in test [18], > 100 µM (inactive). Besides, the GI50 in [19] was > 100 µM (inactive).
Consider `CCCCNC1CCC2(SCCS2)c2[nH]c3ccccc3c21` (configuration not stated), for which the GI50 in test [1] was 10.1 µM (inactive); in test [2], 20.2 µM (inactive); in test [3], 5.14 µM (inactive); in test [4], 27.9 µM (inactive); in test [5] it was 8.41 µM (inactive); in [6] it was 29.6 µM (inactive). Also, the GI50 in test [7] is 21 µM (inactive); in [8], 2.56 µM (inactive); in [9], 29.8 µM (inactive); in test [10], 37.7 µM (inactive); in test [11] it was 59.7 µM (inactive); in [12], 6.37 µM (inactive). In addition, the GI50 in [13] was 17.1 µM (inactive); in [14], 7.46 µM (inactive); in test [15], 3.11 µM (inactive); in test [20], 25.4 µM (inactive); in [16], 43.1 µM (inactive); in [17], 4.78 µM. The GI50 in test [18] was 28.4 µM (inactive).
Take `CCN(CC)CCOCC1CCCN2CCCCC12` (configuration not stated): the GI50 in test [1], in test [2], in test [3], in test [4], in [5] and in test [6] was > 100 µM (inactive) in each case. The GI50 in [7], in test [8], in [9], in test [10], in [11] and in test [12] was > 100 µM (inactive) in each case. In addition, the GI50 was > 100 µM (inactive) in test [13]; > 100 µM (inactive) in test [14]; > 100 µM (inactive) in [15]; > 100 µM (inactive) in test [16]; more than 100 µM in [17]; > 100 µM (inactive) in test [18]. Moreover, the GI50 in test [19] was > 100 µM (inactive).
On to `O=C(c1cc(Cl)ccc1Cl)N1CCN(c2cccc(Cl)c2)CC1`, for which the GI50 is 3.92 µM (inactive) in [1]; 6.59 µM (inactive) in [3]; 22.8 µM (inactive) in test [4]; 14.5 µM (inactive) in test [5]; 34.8 µM (inactive) in [6]; 11.1 µM (inactive) in [7]. Besides, the GI50 is 10.7 µM (inactive) in test [8]; 21.9 µM (inactive) in test [9]; 4.09 µM (inactive) in [10]; 26.4 µM (inactive) in test [11]; 6.07 µM (inactive) in test [12]; 22.2 µM (inactive) in [13]. Further, the GI50 in test [14] is 2.08 µM (inactive); in [15], 12.4 µM (inactive); in [20], 10.8 µM (inactive); in test [16], 13.9 µM (inactive); in [17], 8.85 µM; in [18], > 10 µM (inactive).
For the compound `COC(=O)c1ccc(/C=N/c2ccc(S(N)(=O)=O)cc2)cc1`, the GI50 in [2] is 60.3 µM (inactive); in test [3], > 100 µM (inactive); in test [4], 84.3 µM (inactive); in test [5] it was 87.1 µM (inactive); in [6], > 100 µM (inactive); in test [7], > 100 µM (inactive). Moreover, the GI50 was > 100 µM (inactive) in [8]; 38.2 µM (inactive) in test [9]; 73.8 µM (inactive) in [10]; > 100 µM (inactive) in [11]; > 100 µM (inactive) in test [12]; 53.5 µM (inactive) in test [13]. Moreover, the GI50 is > 100 µM (inactive) in test [14]; 41.8 µM (inactive) in test [15]; 58.9 µM (inactive) in test [16]; more than 100 µM in test [17]; 65.5 µM (inactive) in test [18]; 22 µM (inactive) in test [19].

These data come from ChEMBL document CHEMBL1201862, “PubChem BioAssay data set” (2004).
